Results from patent US20230072164A1, “GRANULAR PHARMACEUTICAL PRODUCT FOR ORAL ADMINISTRATION FROM A PRE-FILLED STRAW AND METHOD OF MANUFACTURING SUCH PHARMACEUTICAL PRODUCT” (ALTERNO LABS D.O.O., priority 2020, published 2023).

Columns and labels:
Format in all cases: physicochemical
[1] = Sessile drop water contact angle on compressed plates; parameters: key to Observed sweling: — = not measurable; * = observed; ** = fast swelling; *** = very fast swelling; details: for Δ θ: decrease of water contact angle from 0 s to 30 s; for Observed sweling: during contact angle measurement; for θ at time 0 s (st. deviation) / θ at time 30 s (st. deviation): sessile drop water contact angle, 3 μL drop, flat surface plate, room temperature
Method: The water contact angle on compressed powders of the different polymers used as the first coating layer, trehalose and erythritol was measured with a Kruss sessile drop contact angle meter DSA100 (Krυss, Germany) at room temperature. 200 mg of powder was compressed with a Specac hydraulic press (Kent, England) with a 10 s dwell time at a pressure of 4×10^8 Pa. A circular punch and dye assembly (12 mm diameter) with polished stainless steel round punches were used for compression. At least six repetitions on three different plates of the same polymer or other two excipients were performed to ensure the reproducibility of results. Measurements were performed with 3 μL water drop and video recording (software DSA 1.90.0.14 Krυss, Germany) that enabled the determination of contact angles at time zero and 30 seconds later. Contact angles at these two-time points together with visual observation of surface swelling were taken as relevant parameters for polymers differentiation. In the same manner, trehalose and erythritol were also analyzed.

[2] = Particle size distribution by laser diffraction (dry powder)
Method: The particle size distribution of powder samples (crystals, coated crystals) was determined using a laser diffraction analyzer (Malvern Mastersizer 3000, Worcestershire, United Kingdom) connected to Aero S dry powder dispersion, as this technique enables measurement in the range between 100 nm and 3500 μm. Approximately 2-3 g of sample was put into the dosing device, air pressure was set to 1.2 bar for coated crystals and granulates (for micronized paracetamol the dispersing air pressure was set to 3.0 bar). Measurement was performed automatically when obscuration was in a range between 0.5 and 5%. Background measurements were performed for 10 seconds and the stabilization time delay before initialization (time before measurements after the desired obscuration was achieved) was set to 3 seconds and measurement duration to 5 seconds respectively. The nonspherical measurement mode approximation was used to determine the particle size distribution for paracetamol crystals and coated crystals. A refraction index and absorption rate for paracetamol were set to 1.62 and 0.01 respectively. The distribution results were expressed as three values: d10, where 10% of the particle population lies below the measured value; d50, the median value; and d90, where 90 percent of the population lies below the measured value.

[3] = Dissolution of coated paracetamol crystals in water (taste masking, non-compendial); details: 100 mL purified water, room temperature
Method: A non-compendial test was performed in order to simulate the taste masking efficinecy of polymer coat during drug sipping. Pure paracetamol crystals were used as reference material. 100 mL of purified water was transferred in an Erlenmeyer flask on a magnetic stirrer at room temperature. The test formulation containing 250 mg of paracetamol was suspended in the Erlenmeyer flask and aliquotes of 5.0 mL were withdrawn at intervals of 0.5, 1.0, 1.5, 2.0, 2.5, 3.0 and 5.0 minutes (±15% tolerance limit for time) and replaced with an equal volume of purified water (freshwater, maintained at the same temperature) at each sampling point. Samples were immediately filtered using 0.45 μm RC syringe filters.
Samples were appropriately diluted and analyzed by HPLC. The amount of drug release was calculated from a standard calibration curve, which was prepared on the day of the experiment.

[4] = Example 3, coated crystals 250-500 μm, milled erythritol, final granules from high shear mixer
[5] = laser diffraction, Comparative Example 1 and Example 2

Structure (SMILES) | Δ θ [1] [°] | Observed sweling [1] | θ at time 0 s (st. deviation) [1] | θ at time 30 s (st. deviation) [1] | d10 [2, 4] [μm] | d50 [2, 4] [μm] | d90 [2, 4] [μm] | dissolution rate in water [3] | d10 [2, 5] [μm] | d50 [2, 5] [μm] | d90 [2, 5] [μm]
OC[C@@H](O)[C@@H](O)CO [Erythritol, erythritol] | 0 | — | 0 ° | 0 ° | 7 | 46 | 108 |  |  |  | 
CC(=O)Nc1ccc(O)cc1 [Paracetamol—large crystals, uncoated, paracetamol] |  |  |  |  |  |  |  | dissoves much faster than from coated particles | 208 | 458 | 772
CC(=O)Nc1ccc(O)cc1 [Paracetamol—milled, uncoated, paracetamol] |  |  |  |  |  |  |  |  | 5 | 32 | 152
OC[C@H]1O[C@H](O[C@H]2O[C@H](CO)[C@@H](O)[C@H](O)[C@H]2O)[C@H](O)[C@@H](O)[C@@H]1O [Trehalose, trehalose] | 4.8 | — | 13.4 (1.9) ° | 8.6 (2.0) ° |  |  |  |  |  |  | 
